Assay results as given in patent US8802633B1, “Autophagy-inducing peptide analogs” (Board of Regents, The University of Texas System, priority 2013, dated 2014).
No end group written: not given here.

Key:
[1] = test system: LC3; assay: western blot detection of the conversion of LC3-I into LC3-II; type: cell-based; conditions: 10 micomolar peptide, compared to 10 micomolar Tat-Beclin 1 compound
Experimental: (§1) To further assess the components of the beclin1 peptide required for autophagy-inducing activity, a series of shorter peptides were developed. Activity was measured by biochemical autophagy assays including western blot detection of p62 (a protein degraded by autophagy) and western blot detection of the conversion of LC3-I into LC3-II (the lipidated autophagosome-associated form of LC3).

[2] = test system: p62; assay: western blot detection of p62 (a protein degraded by autophagy); type: cell-based; conditions: 10 micomolar peptide, compared to 10 micomolar Tat-Beclin 1 compound
Experimental: as §1

Tat-GG-VFNATFEIWHD (Tat-GGVFNATFEIWHD) [tat protein transduction domain linked through a diglycine linker to Beclin 1 residues 269-279 with H275E and S279D]
LC3-II conversion [1]: increased LC3-II conversion
p62 degradation [2]: increased p62 degradation
